Data reported in ChEMBL document CHEMBL5104164, “Design, synthesis, and biological evaluation of pyrrolopyrimidine derivatives as novel Bruton's tyrosine kinase (BTK) inhibitors” (Eur J Med Chem, 2022).

Experiments:
[1] = target: Tyrosine-protein kinase BTK (Homo sapiens, UniProt Q06187); assay: Inhibition of BTK (unknown origin) measured by ADP-Glo assay
TMD8 = assay: Antiproliferative activity against human TMD8 cells incubated for 72 hrs by CellTiter-Glo assay; conditions: TMD8, 72 h
[2] = Tmax in male BALB/c mouse at 2 mg/kg, iv; assay type: ADME, organism-based; conditions: in vivo
[3] = Cmax in male BALB/c mouse at 2 mg/kg, iv; assay type: ADME, organism-based; parameters: dose 2 mg/kg, route iv; conditions: in vivo
[4] = AUC (0 to t) in male BALB/c mouse at 2 mg/kg, iv; assay type: ADME, organism-based; parameters: dose 2 mg/kg, route iv; conditions: in vivo
[5] = AUC (0 to infinity) in male BALB/c mouse at 2 mg/kg, iv; assay type: ADME, organism-based; parameters: time infinity, dose 2 mg/kg, route iv; conditions: in vivo
[6] = Half-life in male BALB/c mouse at 2 mg/kg, iv; assay type: ADME, organism-based; conditions: in vivo
[7] = Apparent volume of distribution in male BALB/c mouse at 2 mg/kg, iv; assay type: ADME, organism-based; conditions: in vivo, read-out: Vz
[8] = Clearance in male BALB/c mouse at 2 mg/kg, iv; assay type: ADME, organism-based; conditions: in vivo
[9] = Oral bioavailability in male BALB/c mouse; assay type: ADME, organism-based; conditions: in vivo
[10] = Tmax in male BALB/c mouse at 10 mg/kg, po; assay type: ADME, organism-based; conditions: in vivo
[11] = Cmax in male BALB/c mouse at 10 mg/kg, po; assay type: ADME, organism-based; parameters: dose 10 mg/kg, route po; conditions: in vivo
[12] = AUC (0 to t) in male BALB/c mouse at 10 mg/kg, po; assay type: ADME, organism-based; parameters: dose 10 mg/kg, route po; conditions: in vivo
[13] = AUC (0 to infinity) in male BALB/c mouse at 10 mg/kg, po; assay type: ADME, organism-based; parameters: time infinity, dose 10 mg/kg, route po; conditions: in vivo
[14] = Half-life in male BALB/c mouse at 10 mg/kg, po; assay type: ADME, organism-based; conditions: in vivo
Homo sapiens = species: Homo sapiens; assay: Selectivity ratio for inhibition of BTK (unknown origin) over EGFR (unknown origin)

Sequence of Tyrosine-protein kinase BTK (Q06187 whole entry): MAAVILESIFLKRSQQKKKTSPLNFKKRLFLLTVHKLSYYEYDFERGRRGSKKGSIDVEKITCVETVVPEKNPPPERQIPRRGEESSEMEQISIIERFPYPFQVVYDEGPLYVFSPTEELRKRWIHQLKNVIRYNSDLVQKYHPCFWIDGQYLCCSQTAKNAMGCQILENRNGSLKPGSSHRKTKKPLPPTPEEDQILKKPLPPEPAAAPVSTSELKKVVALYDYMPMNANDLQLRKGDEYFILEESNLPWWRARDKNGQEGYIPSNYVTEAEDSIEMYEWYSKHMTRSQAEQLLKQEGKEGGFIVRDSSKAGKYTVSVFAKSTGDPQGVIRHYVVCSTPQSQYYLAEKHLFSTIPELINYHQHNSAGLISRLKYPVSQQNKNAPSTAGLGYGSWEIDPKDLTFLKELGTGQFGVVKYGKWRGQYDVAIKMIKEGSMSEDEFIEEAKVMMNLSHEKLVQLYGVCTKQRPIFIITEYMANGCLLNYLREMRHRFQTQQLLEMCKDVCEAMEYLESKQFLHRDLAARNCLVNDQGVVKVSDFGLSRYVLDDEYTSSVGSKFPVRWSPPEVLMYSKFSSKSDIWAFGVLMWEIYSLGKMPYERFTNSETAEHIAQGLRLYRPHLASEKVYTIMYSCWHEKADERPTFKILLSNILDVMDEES

| SMILES | IC50 [1] | IC50 (TMD8) | further results |
| --- | --- | --- | --- |
| CC#CC(=O)N1CC=C(c2c[nH]c3ncnc(-c4ccc(CNC(=O)c5ccc(C6CC6)cc5)c(F)c4)c23)CC1 | 1.9 nM | 1.2 nM |  |
| C=CC(=O)N1CCC(Nc2ncnc3[nH]cc(C(=O)N4CC(Oc5ccccc5)C4)c23)C1 (stereo not given) | 4.5 nM | 2530 nM |  |
| CC#CC(=O)N1CCC(Nc2ncnc3[nH]cc(C(=O)N4CC(Oc5ccccc5)C4)c23)CC1 | 974 nM |  |  |
| C=CC(=O)N1CCC(CNc2ncnc3[nH]cc(C(=O)N4CC(Oc5cccc(C)c5)C4)c23)CC1 | 0.5 nM | 15.6 nM |  |
| C=CC(=O)N1CCC(c2c[nH]c3ncnc(-c4ccc(CNC(=O)c5ccc(C(C)(C)C)cc5)c(C)c4)c23)CC1 | 0.8 nM | 1.5 nM |  |
| C=CC(=O)N1CCC(CNc2ncnc3[nH]cc(C(=O)NCCOc4ccccc4)c23)CC1 | 8.4 nM |  |  |
| C=CC(=O)N1CCC(CNc2ncnc3[nH]cc(C(=O)N4CC(Oc5cccc(F)c5)C4)c23)CC1 | 0.4 nM | 9.2 nM | Tmax [2]: 1.8 min; Cmax [3]: 2.23 µg/mL; AUC(0-t) [4]: 0.539 µg·h/mL; AUC(0-inf) [5]: 0.541 µg·h/mL; half-life [6]: 15.6 min; Vd [7]: 1.37 L/kg; clearance [8]: 3.71 L/h/kg; bioavailability [9]: 2.58%; Tmax [10]: 15 min; Cmax [11]: 0.148 µg/mL; AUC(0-t) [12]: 0.0695 µg·h/mL; AUC(0-inf) [13]: 0.0753 µg·h/mL; half-life [14]: 57 min |
| C=CC(=O)NCCNc1ncnc2[nH]cc(C(=O)N3CC(Oc4ccccc4)C3)c12 | 92.9 nM |  |  |
| C=CC(=O)N1CCC(CNc2ncnc3[nH]cc(C(=O)N4CC(Oc5ccccn5)C4)c23)CC1 | 0.8 nM | 38.1 nM |  |
| C=CC(=O)N1CCC(CNc2ncnc3[nH]cc(C(=O)N4CC(OCc5ccccc5)C4)c23)CC1 | 2 nM | 30.7 nM |  |
| C=CC(=O)N1CC=C(c2c[nH]c3ncnc(-c4ccc(CNC(=O)c5ccc(C(C)(C)C)cc5)c(C)c4)c23)CC1 | 1.34 nM |  |  |
| C=CC(=O)NC1CCCN(c2ncnc3[nH]cc(C(=O)N4CC(Oc5ccccc5)C4)c23)C1 (stereo not given) | 5410 nM |  |  |
| C=CC(=O)N1CC=C(c2c[nH]c3ncnc(-c4ccc(CNC(=O)c5ccc(C6CC6)cc5)c(F)c4)c23)CC1 | 1.2 nM | 0.8 nM |  |
| C=CC(=O)N1CCC(CNc2ncnc3[nH]cc(C(=O)NCc4ccccc4)c23)CC1 | 52.3 nM |  |  |
| CC#CC(=O)N1CCC(c2c[nH]c3ncnc(-c4ccc(CNC(=O)c5ccc(C(C)(C)C)cc5)cc4)c23)CC1 | 2.2 nM |  |  |
| CC#CC(=O)N1CCCC(Nc2ncnc3[nH]cc(C(=O)N4CC(Oc5ccccc5)C4)c23)C1 (stereo not given) | 153 nM |  |  |
| C=CC(=O)N1CCC(CNc2ncnc3[nH]cc(C(=O)N4CC(Oc5cccc6ccccc56)C4)c23)CC1 | 0.8 nM | 22.6 nM |  |
| C=CC(=O)N1CCC(c2c[nH]c3ncnc(-c4ccc(CNC(=O)c5ccc(C(C)(C)C)cc5)cc4)c23)CC1 | 2.1 nM |  |  |
| CC#CC(=O)NC1CCCN(c2ncnc3[nH]cc(C(=O)N4CC(Oc5ccccc5)C4)c23)C1 (stereo not given) | > 10000 nM |  |  |
| CC#CC(=O)N1CC=C(c2c[nH]c3ncnc(-c4ccc(CNC(=O)c5ccc(C(C)(C)C)cc5)cc4)c23)CC1 | 11.1 nM |  |  |
| C=CC(=O)N1CCC(CNc2ncnc3[nH]cc(C(=O)Nc4ccccc4)c23)CC1 | 98.7 nM |  |  |
| CC#CC(=O)N1CC=C(c2c[nH]c3ncnc(-c4ccc(CNC(=O)c5ccc(C(C)(C)C)cc5)c(C)c4)c23)CC1 | 1.1 nM | 1.7 nM |  |
| C=CC(=O)N1CCC(CNc2ncnc(N)c2-c2ccc(Oc3ccccc3)cc2)CC1 [EVOBRUTINIB] |  | 56.2 nM |  |
| C=CC(=O)N1CCC(c2c[nH]c3ncnc(-c4ccc(CNC(=O)c5ccc(C(C)(C)C)cc5)c(F)c4)c23)CC1 | 1.9 nM |  |  |

| SMILES | IC50 [1] | IC50 (TMD8) | further results |
| --- | --- | --- | --- |
| C=CC(=O)N1CC=C(c2c[nH]c3ncnc(-c4ccc(CNC(=O)c5ccc(C(C)(C)C)cc5)c(F)c4)c23)CC1 | 1.3 nM | 3.4 nM |  |
| C=CC(=O)N1CC=C(c2c[nH]c3ncnc(-c4ccc(CNC(=O)Nc5ccccc5)c(F)c4)c23)CC1 | 0.8 nM | 12.1 nM |  |
| C=CC(=O)N1CCCC(Nc2ncnc3[nH]cc(C(=O)N4CC(Oc5ccccc5)C4)c23)C1 (stereo not given) | 1.9 nM | 454 nM |  |
| C=CC(=O)N1CCC(CNc2ncnc3[nH]cc(C(=O)N4CCC(Oc5ccccc5)CC4)c23)CC1 | 26.2 nM |  |  |
| CC#CC(=O)N1CCC(Nc2ncnc3[nH]cc(C(=O)N4CC(Oc5ccccc5)C4)c23)C1 (stereo not given) | 68.5 nM |  |  |
| C=CC(=O)N1CCC([C@@H]2CCNc3c(C(N)=O)c(-c4ccc(Oc5ccccc5)cc4)nn32)CC1 |  |  | Selectivity ratio (Homo sapiens): 8.7 |
| C=CC(=O)N1CCC(CNc2ncnc3[nH]cc(C(=O)N4CC(OC(C)C)C4)c23)CC1 | 23.2 nM |  |  |
| C=CC(=O)N1CCC(CNc2ncnc3[nH]cc(C(=O)NCCc4ccccc4)c23)CC1 | 17.3 nM |  |  |
| C=CC(=O)N1CCC(CNc2ncnc3[nH]cc(C(=O)N4CC(Oc5ccccc5)C4)c23)CC1 | 0.6 nM | 24.4 nM |  |
| C=CC(=O)N1CCC(CNc2ncnc3[nH]cc(C(=O)N4CC(Oc5ccc6ccccc6c5)C4)c23)CC1 | 1.4 nM | 28 nM |  |
| CCOc1cc2ncc(C#N)c(Nc3ccc(OCc4ccccn4)c(Cl)c3)c2cc1NC(=O)/C=C/[C@H]1CCCN1C [PYROTINIB] | 31.7 nM |  |  |
| C=CC(=O)N1CCC(Nc2ncnc3[nH]cc(C(=O)N4CC(Oc5ccccc5)C4)c23)CC1 | 593 nM |  |  |
| C=CC(=O)N1CCC(CNc2ncnc3[nH]cc(C(=O)N4CC(Oc5cccc(Cl)c5)C4)c23)CC1 | 0.5 nM | 12.9 nM | Tmax [2]: 3 min; Cmax [3]: 1.25 µg/mL; AUC(0-t) [4]: 0.359 µg·h/mL; AUC(0-inf) [5]: 0.541 µg·h/mL; half-life [6]: 11.4 min; Vd [7]: 1.52 L/kg; clearance [8]: 5.57 L/h/kg; bioavailability [9]: 1.82%; Tmax [10]: 6.6 min; Cmax [11]: 0.0486 µg/mL; AUC(0-t) [12]: 0.0328 µg·h/mL; AUC(0-inf) [13]: 0.0329 µg·h/mL; half-life [14]: 23.4 min |
| C=CC(=O)N1CCC(CNc2ncnc3[nH]cc(C(=O)N4CC(Oc5cccc(C(F)(F)F)c5)C4)c23)CC1 | 1.6 nM | 22.4 nM |  |
| CC#CC(=O)N1CCC(c2c[nH]c3ncnc(-c4ccc(CNC(=O)c5ccc(C(C)(C)C)cc5)c(F)c4)c23)CC1 | 1.2 nM | 1.8 nM | Tmax [2]: 1.8 min; Cmax [3]: 2.16 µg/mL; AUC(0-t) [4]: 0.229 µg·h/mL; AUC(0-inf) [5]: 0.231 µg·h/mL; half-life [6]: 167 min; Vd [7]: 34.8 L/kg; clearance [8]: 8.67 L/h/kg; bioavailability [9]: 0.78%; Tmax [10]: 4.8 min; Cmax [11]: 0.0499 µg/mL; AUC(0-t) [12]: 0.00894 µg·h/mL; AUC(0-inf) [13]: 0.00957 µg·h/mL; half-life [14]: 83.4 min |
| CC#CC(=O)N1CC=C(c2c[nH]c3ncnc(-c4ccc(CNC(=O)c5ccccc5)c(F)c4)c23)CC1 | 1 nM | 5.4 nM |  |
| C=CC(=O)N1CC[C@H](n2nc(C#Cc3cc(OC)cc(OC)c3)c3c(N)ncnc32)C1 [FUTIBATINIB] | 94.9 nM |  |  |
| CC#CC(=O)N1CC=C(c2c[nH]c3ncnc(-c4ccc(CNC(=O)Nc5ccccc5)c(F)c4)c23)CC1 | 1.4 nM | 7.2 nM |  |
| C=CC(=O)N1CCC(O)(CNc2ncnc3[nH]cc(C(=O)N4CC(Oc5ccccc5)C4)c23)CC1 | 2.2 nM | 320 nM |  |
| CC#CC(=O)N1CCC(c2c[nH]c3ncnc(-c4ccc(CNC(=O)c5ccc(C(C)(C)C)cc5)c(C)c4)c23)CC1 | 1.4 nM |  |  |
| C=CC(=O)N1CCC(CNc2ncnc3[nH]cc(C(=O)N4CC(Oc5ccc(F)cc5)C4)c23)CC1 | 0.7 nM | 84.1 nM |  |
| CC#CC(=O)N1CCC(CNc2ncnc3[nH]cc(C(=O)N4CC(Oc5ccccc5)C4)c23)CC1 | 16.4 nM |  |  |
| C=CC(=O)N1CC=C(c2c[nH]c3ncnc(-c4ccc(CNC(=O)c5ccc(C(C)(C)C)cc5)cc4)c23)CC1 | 2.5 nM |  |  |
| CC#CC(=O)N1CC=C(c2c[nH]c3ncnc(-c4ccc(CNC(=O)c5ccc(C(C)(C)C)cc5)c(F)c4)c23)CC1 | 0.8 nM | 1.7 nM |  |
